Patent publication US20250228865A1, “COMPOUNDS FOR ENHANCING READ THROUGH OF GENES CONTAINING PREMATURE TERMINATION CODONS AND METHODS FOR MAKING AND USING THE SAME” (Sanofi US Services Inc., priority 2022, published 2025)
Read-outs that look alike come from different tables or passages of the source.

System: recombinant human CFTR carrying the premature stop codon (PTC) mutation R1162X
Assay: CFTR-PTC mutant translation readthrough, Nanoluc tagged CFTR luminescence (R1162X cell line)
Assay type: cell-based
Details: for CFTR R1162X ACTIVITY Fold 10 μM G-418: fold over 10 μM G-418, in combination with G418
Method: 16HBE human bronchial epithelial cells (stably over-expressing recombinant human CFTR carrying the premature stop codon (PTC) mutation G542X or R1162X along with a Nanoluc tag incorporated into the CFTR channel within extracellular loop 4 in G542X cell line or C-terminus end in the R1162X cell line were seeded at 0.01×10^6 cells/well and grown in Minimal Essential Medium (MEM) as monolayers in 384 well plates and incubated at 37° C. with 5% CO2. Media was changed every other day until day of experiment. Agents to be evaluated were made up in separate 384 well, polypropylene plates at a 2X the final desired test concentration. Test agent 10-point concentration response curves were constructed using the Labcyte Echo 555 acoustic dispenser. Test agents were typically tested at a max final test concentrations of 50 μM with sequential 2-fold lower concentrations below this in the absence or presence of a fixed 10 μM concentration of the aminoglycoside G418 made up in MEM growth media (reduced Serum Media+HEPES Buffer+2.4 g/L Sodium Bicarbonate+L-Glutamine containing CFTR corrector VX-809 (3 μM)). Treatment with 10 μM G418 alone produced approximately 10% of the response observed with a maximally effective concentration of G418 (typically 125-250 μM). Test agent effects in presence of 10 μM G418 were compared to control wells on the plate containing a maximally effective concentration of G418 (typically 125-250 μM) made up in the same media. 25 ul of test agents/control solutions were transferred from the compound plate to the cell plate, which already contained 25 ul/well of cell plating media, using an Integra Viaflo 384. Cell plates were incubated with the compounds for 48 hours, at which time they were processed using Nanoluc luminescence Kit (Promega Nano-Glo Live Cell Assay System) to measure CFTR-PTC mutant translation readthrough. Luminescence was measured as follows. Cell plates were removed from the incubator and allowed to equilibrate to room temperature for 20 minutes. Media was removed from all wells and the plates were blotted to remove excess remaining volume. Nano-Glo Live Cell Substrate was diluted 1:20 in the appropriate amount of Nano-Glo LCS Dilution Buffer to accommodate the number of cell plates being tested. The substrate/dilution buffer mix was then diluted 1:3 with MEM media to make the appropriate volume for the number of plates being tested. The substrate/dilution buffer/OptiMEM mix was added across the Nanoluc testing cell plates and the plates were read for luminescence signal immediately. Test agent effects on CFTR translation readthrough was determined by normalizing any observed increase in luminescence induced by 48 hours pretreatment with test compound to the magnitude of luminescence increase produced by pretreatment with a maximally effective concentration of the reference readthrough enhancing agent G418 (125-250 μM).

[1] = in combination with G418, 16HBE cells, read-out: CFTR R1162X ACTIVITY EC50
[2] = read-out: CFTR R1162X ACTIVITY EC50, in combination with G418, 16HBE cells

EC50 [1] | Compound | CFTR R1162X ACTIVITY Fold 10 μM G-418 | EC50 [2]
< 1 µM | O=C1N[C@H](CO)CN1c1ccc(OCc2c(Cl)cccc2C(F)(F)F)cn1 | C′ (C′ = <5X) | –
< 1 µM | OCc1ccn(-c2ncc(OCc3c(Cl)cccc3C(F)(F)F)cn2)n1 | C′ (C′ = <5X) | –
< 1 µM | O=C1CN(c2ccc(OCc3c(C(F)(F)F)ccc(F)c3Cl)cn2)C(=O)N1 | C′ (C′ = <5X) | –
< 1 µM | Cc1c(F)ccc(C(F)(F)F)c1COc1ccc(-n2cnc(CO)n2)cc1 | C′ (C′ = <5X) | –
1 to 10 µM | Cc1cccc(C(F)(F)F)c1COc1cnc(N2C[C@@H](CO)NC2=O)nc1 [(4S)-4-(hydroxymethyl)-1-(5-{[2-methyl-6-(trifluoromethyl)phenyl]methoxy}pyrimidin-2-yl)imidazolidin-2-one] | C′ (C′ = <5X) | –
1 to 10 µM | O=C1OC(CO)CN1c1ccc(OCc2c(Cl)ccc(F)c2Cl)cn1 (centres unmarked) [3-{5-[(2,6-dichloro-3-fluorophenyl)methoxy]pyridin-2-yl}-5-(hydroxymethyl)-1,3-oxazolidin-2-one] | C′ (C′ = <5X) | –
> 10 µM | Cc1cccc(C(F)(F)F)c1COc1cnc(N2CCN(C)[C@@H](CN)C2)nc1 | C′ (C′ = <5X) | –
1 to 10 µM | OCc1ncn(-c2ncc(OCc3c(C(F)(F)F)ccc(F)c3Cl)cn2)n1 | A′ (A′ = ≥10X) | –
1 to 10 µM | FC(F)(F)c1cccc(Cl)c1COc1cnc(N2CCn3c(nnc3C(F)(F)F)C2)nc1 | C′ (C′ = <5X) | –
< 1 µM | NC(=O)c1ccn(-c2ncc(OCc3c(C(F)(F)F)cccc3C(F)(F)F)cn2)n1 | A′ (A′ = ≥10X) | –
< 1 µM | O=C1CN(c2ccc(OCc3c(Cl)ccc(F)c3Cl)cn2)C(=O)N1 [Compound 341, 1-{5-[(2,6-dichloro-3-fluorophenyl)methoxy]pyridin-2-yl}imidazolidine-2,4-dione] | C′ (C′ = <5X) | –
1 to 10 µM | [2H]C([2H])(O)c1ncn(-c2ncc(OC([2H])([2H])c3c(Cl)cccc3C(F)(F)F)cn2)n1 | C′ (C′ = <5X) | –
1 to 10 µM | OCc1ncn(-c2ncc(CCc3c(Cl)cccc3Cl)cn2)n1 | C′ (C′ = <5X) | –
< 1 µM | OCc1cnn(-c2ncc(OCc3c(Cl)ccc(F)c3Cl)cn2)n1 | C′ (C′ = <5X) | –
< 1 µM | O=C1N[C@H](CO)CN1c1ccc(OCc2c(C(F)(F)F)cccc2C(F)(F)F)cn1 | C′ (C′ = <5X) | –
– | OCc1cncn1-c1ncc(OCc2c(Cl)cccc2Cl)cn1 [Example 362, (3-{5-[(2,6-dichlorophenyl)methoxy]pyrimidin-2-yl}imidazol-4-yl) methanol] | A′ (A′ = ≥10X) | 1 to 10 µM
< 1 µM | OCc1cn(-c2ncc(OCc3c(C(F)(F)F)ccc(F)c3Cl)cn2)cn1 | C′ (C′ = <5X) | –
> 10 µM | O=C1N[C@H](CO)CN1c1ncc(OCc2c(C(F)(F)F)cccc2C(F)(F)F)cn1 [(4S)-1-(5-{[2,6-bis(trifluoromethyl)phenyl]methoxy}pyrimidin-2-yl)-4-(hydroxymethyl)imidazolidin-2-one] | C′ (C′ = <5X) | –
1 to 10 µM | O=C1CN(c2ccc(OCc3c(Cl)cc(F)cc3Cl)cn2)C(=O)N1 [Compound 349, 1-{5-[(2,6-dichloro-4-fluorophenyl)methoxy]pyridin-2-yl}imidazolidine-2,4-dione] | C′ (C′ = <5X) | –
– | OCc1ccn(-c2cnc(OCc3c(Cl)cccc3Cl)cn2)n1 [Example 339, (1-{5-[(2,6-dichlorophenyl)methoxy]pyrazin-2-yl}pyrazol-3-yl) methanol] | C′ (C′ = <5X) | 1 to 10 µM
1 to 10 µM | OCc1cn(-c2ncc(OCc3c(Cl)cc(F)cc3Cl)cn2)cn1 | C′ (C′ = <5X) | –

EC50 [1] | Compound | CFTR R1162X ACTIVITY Fold 10 μM G-418 | EC50 [2]
< 1 µM | O=C1CN(c2ccc(OCc3c(Cl)cccc3Cl)cn2)C(=O)N1 [Compound 332, 1-{5-[(2,6-dichlorophenyl)methoxy]pyridin-2-yl}imidazolidine-2,4-dione] | C′ (C′ = <5X) | –
< 1 µM | OCc1cn(-c2ncc(OCc3c(Cl)ccc(F)c3Cl)cn2)cn1 | C′ (C′ = <5X) | –
< 1 µM | OCc1ccn(-c2ncc(OCc3c(C(F)(F)F)cccc3C(F)(F)F)cn2)n1 | A′ (A′ = ≥10X) | –
1 to 10 µM | CCc1cccc(C(F)(F)F)c1COc1cnc(N2C[C@@H](CO)NC2=O)nc1 | C′ (C′ = <5X) | –
< 1 µM | O=C1CN(c2ncc(OCc3c(Cl)cccc3C(F)(F)F)cn2)C1 [Compound 355, 1-(5-{[2-chloro-6-(trifluoromethyl)phenyl]methoxy}pyrimidin-2-yl)azetidin-3-one] | A′ (A′ = ≥10X) | –
< 1 µM | Cc1ccc(F)c(C(F)(F)F)c1COc1ccc(-n2cnc(CO)n2)cc1 | A′ (A′ = ≥10X) | –
1 to 10 µM | O=C1OC(CO)CN1c1ncc(OCc2c(Cl)ccc(F)c2Cl)cn1 (centres unmarked) | C′ (C′ = <5X) | –
< 1 µM | OCc1ncn(-c2ccc(OCc3c(Cl)cccc3Cl)cn2)n1 [Example 337, (1-{5-[(2,6-dichlorophenyl)methoxy]pyridin-2-yl}-1,2,4-triazol-3-yl) methanol] | C′ (C′ = <5X) | –
< 1 µM | Cc1cccc(C(F)(F)F)c1COc1cnc(-n2ccc(C(N)=O)n2)nc1 | C′ (C′ = <5X) | –
1 to 10 µM | O=C1CN(c2ccc(OCc3c(Cl)cccc3Cl)nn2)C(=O)N1 [Compound 351, 1-{6-[(2,6-dichlorophenyl)methoxy]pyridazin-3-yl}imidazolidine-2,4-dione] | C′ (C′ = <5X) | –
1 to 10 µM | CC(=O)N1CCN(c2ncc(OCc3c(Cl)cccc3C(F)(F)F)cn2)C[C@@H]1CN | B′ (B′ = ≥5X to <10X) | –
< 1 µM | OCc1ncn(-c2ncc(OCc3c(Cl)ccc(F)c3C(F)(F)F)cn2)n1 | A′ (A′ = ≥10X) | –
< 1 µM | O=C1CN(c2ccc(OCc3c(C(F)(F)F)cccc3C(F)(F)F)cn2)C(=O)N1 [1-(5-{[2,6-bis(trifluoromethyl)phenyl]methoxy}pyridin-2-yl)imidazolidine-2,4-dione] | A′ (A′ = ≥10X) | –
1 to 10 µM | O=C1CN(c2cnc(OCc3c(Cl)cccc3C(F)(F)F)cn2)C(=O)N1 | C′ (C′ = <5X) | –
1 to 10 µM | OCc1cn(-c2ncc(OCc3c(Cl)ccc(F)c3Cl)cn2)nn1 | C′ (C′ = <5X) | –
< 1 µM | Cc1cccc(C(F)(F)F)c1COc1cnc(-n2ncc(CO)n2)nc1 | C′ (C′ = <5X) | –
< 1 µM | OCc1ncn(-c2ccc(OCc3c(C(F)(F)F)ccc(F)c3Cl)cn2)n1 | C′ (C′ = <5X) | –
1 to 10 µM | O=C1CN(c2cnc(OCc3c(Cl)cccc3Cl)cn2)C(=O)N1 [Compound 336, 1-{5-[(2,6-dichlorophenyl)methoxy]pyrazin-2-yl}imidazolidine-2,4-dione] | C′ (C′ = <5X) | –
< 1 µM | O=C1CN(c2ccc(OCc3c(Cl)ccc(F)c3C(F)(F)F)cn2)C(=O)N1 | A′ (A′ = ≥10X) | –
1 to 10 µM | [2H]C([2H])(O)c1ccn(-c2ncc(OC([2H])([2H])c3c(Cl)cccc3Cl)cn2)n1 | C′ (C′ = <5X) | –

Compound | EC50 [1] | CFTR R1162X ACTIVITY Fold 10 μM G-418 | EC50 [2]
N#CC1(O)CN(c2ncc(OCc3c(Cl)cccc3C(F)(F)F)cn2)C1 | < 1 µM | A′ (A′ = ≥10X) | –
OCc1cn(-c2ncc(OCc3c(C(F)(F)F)cccc3C(F)(F)F)cn2)cn1 | < 1 µM | A′ (A′ = ≥10X) | –
